In brackets after ≈: the same amount, converted by molar mass. Read-outs that look alike come from different tables or passages of the source.
How the values were obtained:
[1] = tested on: E. cloacae 13047; experiment: Minimal inhibitory concentration, E. cloacae 13047; format: cell-based; conditions: 16 hour minimal inhibitory concentration at 37° C., read-out: MIC (μM) E. cloacae 13047
Method in brief: (§1)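 MICs (µM) correspond to the lowest concentration stopping bacterial growth, judged by visible-light absorbance at 600 nm following a 16 h static incubation at 37 °C. Compounds were titrated twofold into doubly 1:100-diluted saturated cultures.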

[2] = tested on: E. coli MC4100; experiment: Minimal inhibitory concentration, E. coli MC4100; format: cell-based; conditions: 16 hour minimal inhibitory concentration at 37° C., read-out: MIC (μM) E. coli MC4100 ara+
Method in brief: as §1

[3] = tested on: S. aureus MW2; experiment: Minimal inhibitory concentration, S. aureus MW2; format: cell-based; conditions: 16 hour minimal inhibitory concentration at 37° C., read-out: MIC (μM) S. aureus MW2 (MRSA)
Method in brief: as §1

[4] = tested on: E. coli 25922; experiment: Minimal inhibitory concentration, E. coli 25922; format: cell-based; conditions: 16 hour minimal inhibitory concentration at 37° C., read-out: MIC (μM) E. coli 25922
Method in brief: as §1

[5] = tested on: S. aureus RN4220; experiment: Minimal inhibitory concentration, S. aureus RN4220; format: cell-based; conditions: 16 hour minimal inhibitory concentration at 37° C., read-out: MIC (μM) S. aureus RN4220
Method in brief: as §1

[6] = tested on: A. baumannii 19606; experiment: Minimal inhibitory concentration, A. baumannii 19606; format: cell-based; conditions: 16 hour minimal inhibitory concentration at 37° C., read-out: MIC (μM) A. baumannii 19606
Method in brief: as §1

[7] = tested on: K. pneumoniae 700721; experiment: Minimal inhibitory concentration, K. pneumoniae 700721; format: cell-based; conditions: 16 hour minimal inhibitory concentration at 37° C., read-out: MIC (μM) K. pneumoniae 700721
Method in brief: as §1

[8] = tested on: WT E. coli; experiment: Minimal inhibitory concentration in wild-type E. coli; format: cell-based, Escherichia coli; conditions: wild-type E. coli, 37° C., 16 hours, read-out: MIC (μM) in WT E. coli
Method in brief: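 Broth microdilution: saturated LB overnight culture diluted 1:100 twice, compound serially two-fold diluted across the plate from DMSO stock. Static incubation 16 hours at 37° C, OD600 read; MIC taken as lowest concentration inhibiting growth.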

[9] = Staphylococcus aureus, MRSA, 16 h
[10] = Staphylococcus aureus, RN4220, 16 h
[11] = Acinetobacter baumannii, 19606, 16 h

Row | Compound | MIC ([1]; Enterobacter cloacae, 13047) [µM] | MIC ([2]; Escherichia coli, MC4100, 16 h) [µM] | MIC [3, 9] [µM] | MIC ([4]; Escherichia coli, 25922, 16 h) [µM] | MIC [5, 10] [µM] | MIC [6, 11] [µM] | MIC ([7]; Klebsiella pneumoniae, 700721) [µM] | MIC ([8]; Escherichia coli) [µM] | MIC [1] [µM] | MIC [2] [µM] | MIC [3] [µM] | MIC [4] [µM] | MIC [5] [µM] | MIC [6] [µM] | MIC [7] [µM] | MIC [8] [µM]
1 | CO[C@@H]1[C@@H](OC(N)=O)[C@@H](O)[C@H](Oc2ccc3c(O)c(NC(=O)C45CC6CC(CC(C6)C4)C5)c(=O)oc3c2C)OC1(C)C [Compound 14] | > 100 | > 200 | 21 (≈ 12.3 µg/mL) | > 200 | 43 (≈ 25.2 µg/mL) | > 50 | > 100 | > 300 |  |  |  |  |  |  |  | 
2 | CO[C@@H]1[C@@H](OC(N)=O)[C@@H](O)[C@H](Oc2ccc3c(O)c(NC(=O)c4cccc(-c5cccc(C)c5)c4)c(=O)oc3c2C)OC1(C)C [Compound 51] | > 100 | 26 (≈ 16.1 µg/mL) | 1 (≈ 0.619 µg/mL) | 81 (≈ 50.1 µg/mL) | 1.62 (≈ 1 µg/mL) | 40 (≈ 24.7 µg/mL) | > 100 | 26 (≈ 16.1 µg/mL) |  |  |  |  |  |  |  | 
3 | CO[C@@H]1[C@@H](OC(N)=O)[C@@H](O)[C@H](Oc2ccc3c(O)c(NC(=O)c4cc(-c5ccc(F)cc5)c(O)cc4O)c(=O)oc3c2C)OC1(C)C [Compound 84] |  |  |  |  |  |  |  |  | 81 (≈ 53 µg/mL) | 8 (≈ 5.24 µg/mL) | 5 (≈ 3.27 µg/mL) | 10 (≈ 6.55 µg/mL) | 5 (≈ 3.27 µg/mL) | >50 | 40 (≈ 26.2 µg/mL) | 8 (≈ 5.24 µg/mL)
4 | CO[C@@H]1[C@@H](OC(N)=O)[C@@H](O)[C@H](Oc2ccc3c(O)c(NC(=O)c4cccc(S(F)(F)(F)(F)F)c4)c(=O)oc3c2C)OC1(C)C [Compound 26] | > 100 | > 200 | > 100 | > 200 | > 100 | > 50 | > 100 | > 300 |  |  |  |  |  |  |  | 
5 | CO[C@@H]1[C@@H](OC(N)=O)[C@@H](O)[C@H](Oc2ccc3c(O)c(NC(=O)c4cccc(-c5cccnc5)c4)c(=O)oc3c2C)OC1(C)C [Compound 29] | > 100 | > 200 | 83 (≈ 50.3 µg/mL) | > 200 | 83 (≈ 50.3 µg/mL) | > 50 | > 100 | > 300 |  |  |  |  |  |  |  | 
6 | CO[C@@H]1[C@@H](OC(N)=O)[C@@H](O)[C@H](Oc2ccc3c(O)c(NC(=O)c4cccc(Cc5ccccc5)c4)c(=O)oc3c2C)OC1(C)C [Compound 69] |  |  |  |  |  |  |  |  | >100 | 89 (≈ 55.1 µg/mL) | 3 (≈ 1.86 µg/mL) | 81 (≈ 50.1 µg/mL) | 5 (≈ 3.09 µg/mL) | >50 | >100 | 89 (≈ 55.1 µg/mL)
7 | CO[C@@H]1[C@@H](OC(N)=O)[C@@H](O)[C@H](Oc2ccc3c(O)c(NC(=O)c4cccc(-c5ccc(F)cc5)c4)c(=O)oc3c2C)OC1(C)C [Compound 28] | 161 (≈ 100 µg/mL) | 26 (≈ 16.2 µg/mL) | 5 (≈ 3.11 µg/mL) | 40 (≈ 24.9 µg/mL) | 5 (≈ 3.11 µg/mL) | > 50 | 80 (≈ 49.8 µg/mL) | 26 (≈ 16.2 µg/mL) |  |  |  |  |  |  |  | 
8 | CO[C@@H]1[C@@H](OC(N)=O)[C@@H](O)[C@H](Oc2ccc3c(O)c(NC(=O)c4ccc(O)cc4)c(=O)oc3c2C)OC1(C)C [Compound 30] | > 100 | > 200 | 46 (≈ 25 µg/mL) | > 200 | 46 (≈ 25 µg/mL) | > 50 | > 100 | > 300 |  |  |  |  |  |  |  | 
9 | CO[C@@H]1[C@@H](OC(N)=O)[C@@H](O)[C@H](Oc2ccc3c(O)c(NC(=O)c4cc(-c5ccc6ccccc6c5)cc(O)c4O)c(=O)oc3c2C)OC1(C)C [Compound 98] |  |  |  |  |  |  |  |  | >100 | >200 | 18 (≈ 12.4 µg/mL) | >200 | 18 (≈ 12.4 µg/mL) | 36 (≈ 24.7 µg/mL) | >100 | >300
10 | CO[C@@H]1[C@@H](OC(N)=O)[C@@H](O)[C@H](Oc2ccc3c(O)c(NC(=O)Cc4ccccc4)c(=O)oc3c2C)OC1(C)C [Compound 42] |  |  |  |  |  |  |  |  | >100 | >200 | >100 | >200 | >100 | >50 | >100 | >300
11 | CO[C@@H]1[C@@H](OC(N)=O)[C@@H](O)[C@H](Oc2ccc3c(O)c(NC(=O)c4cccc(N5CCN(C)CC5)c4)c(=O)oc3c2C)OC1(C)C [Compound 52] | > 100 | > 200 | > 100 | 160 (≈ 100 µg/mL) | > 100 | > 50 | > 100 | > 300 |  |  |  |  |  |  |  | 
12 | CO[C@@H]1[C@@H](OC(N)=O)[C@@H](O)[C@H](Oc2ccc3c(O)c(NC(=O)c4ccc(Oc5ccccc5)cc4)c(=O)oc3c2C)OC1(C)C [Compound 44] |  |  |  |  |  |  |  |  | >100 | >200 | 40 (≈ 24.8 µg/mL) | >200 | 45 (≈ 27.9 µg/mL) | >50 | >100 | >300
13 | CO[C@@H]1[C@@H](OC(N)=O)[C@@H](O)[C@H](Oc2ccc3c(O)c(NC(=O)c4cccc(-c5c(C)cccc5C)c4)c(=O)oc3c2C)OC1(C)C [Compound 21] | > 100 | 133 (≈ 84.1 µg/mL) | 10 (≈ 6.33 µg/mL) | > 200 | 10 (≈ 6.33 µg/mL) | > 50 | > 100 | 133 (≈ 84.1 µg/mL) |  |  |  |  |  |  |  | 
14 | CO[C@@H]1[C@@H](OC(N)=O)[C@@H](O)[C@H](Oc2ccc3c(O)c(NC(=O)c4cccc(-c5ccc([N+](=O)[O-])cc5)c4)c(=O)oc3c2C)OC1(C)C [Compound 24] |  |  |  |  |  |  |  |  | >100 | >200 | 5 (≈ 3.25 µg/mL) | 154 (≈ 100 µg/mL) | 5 (≈ 3.25 µg/mL) | >50 | >100 | >300
15 | CO[C@@H]1[C@@H](OC(N)=O)[C@@H](O)[C@H](Oc2ccc3c(O)c(NC(=O)c4cc(-c5ccccc5)ccc4O)c(=O)oc3c2C)OC1(C)C [Compound 87] |  |  |  |  |  |  |  |  | >100 | 18 (≈ 11.2 µg/mL) | 20 (≈ 12.4 µg/mL) | 20 (≈ 12.4 µg/mL) | 20 (≈ 12.4 µg/mL) | >50 | 40 (≈ 24.8 µg/mL) | 18 (≈ 11.2 µg/mL)
16 | CO[C@@H]1[C@@H](OC(N)=O)[C@@H](O)[C@H](Oc2ccc3c(O)c(NC(=O)c4cccc(C5CCCCC5)c4)c(=O)oc3c2C)OC1(C)C [Compound 62] |  |  |  |  |  |  |  |  | >100 | 59 (≈ 36 µg/mL) | 3 (≈ 1.83 µg/mL) | 82 (≈ 50.1 µg/mL) | 5 (≈ 3.05 µg/mL) | >50 | 82 (≈ 50.1 µg/mL) | 59 (≈ 36 µg/mL)
17 | CO[C@@H]1[C@@H](OC(N)=O)[C@@H](O)[C@H](Oc2ccc3c(O)c(NC(=O)c4ccccc4)c(=O)oc3c2C)OC1(C)C [Compound 8] |  |  |  |  |  |  |  |  | >100 | >200 | >100 | >200 | >100 | >50 | >100 | >300
18 | CO[C@@H]1[C@@H](OC(N)=O)[C@@H](O)[C@H](Oc2ccc3c(O)c(NC(=O)C(c4ccccc4)c4ccccc4)c(=O)oc3c2C)OC1(C)C [Compound 5] | > 100 | > 200 | 80 (≈ 49.5 µg/mL) | > 200 | > 100 | > 50 | > 100 | > 300 |  |  |  |  |  |  |  | 
19 | CO[C@@H]1[C@@H](OC(N)=O)[C@@H](O)[C@H](Oc2ccc3c(O)c(NC(=O)c4cccc(-c5cccc(F)c5)c4)c(=O)oc3c2C)OC1(C)C [Compound 38] | > 100 | 26 (≈ 16.2 µg/mL) | 10 (≈ 6.23 µg/mL) | 40 (≈ 24.9 µg/mL) | 5 (≈ 3.11 µg/mL) | > 50 | > 100 | 26 (≈ 16.2 µg/mL) |  |  |  |  |  |  |  | 
20 | CO[C@@H]1[C@@H](OC(N)=O)[C@@H](O)[C@H](Oc2ccc3c(O)c(NC(=O)c4cccc(-c5ccccc5OC(F)(F)F)c4)c(=O)oc3c2C)OC1(C)C [Compound 59] |  |  |  |  |  |  |  |  | >100 | 40 (≈ 27.5 µg/mL) | 5 (≈ 3.44 µg/mL) | >200 | 9 (≈ 6.2 µg/mL) | >50 | >100 | 40 (≈ 27.5 µg/mL)
21 | CO[C@@H]1[C@@H](OC(N)=O)[C@@H](O)[C@H](Oc2ccc3c(O)c(NC(=O)c4cc(O)c(O)c(-c5ccc(F)cc5)c4)c(=O)oc3c2C)OC1(C)C [Compound 95] |  |  |  |  |  |  |  |  | >100 | 38 (≈ 24.9 µg/mL) | 38 (≈ 24.9 µg/mL) | 38 (≈ 24.9 µg/mL) | 38 (≈ 24.9 µg/mL) | >50 | >100 | 38 (≈ 24.9 µg/mL)
